Measurements from the supplement of paper PMC10307832.

Key:
Assay in all cases: relative viability (nuclei count vs DMSO), 5 days (fraction); higher = more cells survive
Selisistat + Lapatinib = compound: C1CC(C2=C(C1)C3=C(N2)C=CC(=C3)Cl)C(=O)N [Selisistat] + CS(=O)(=O)CCNCc1ccc(-c2ccc3ncnc(Nc4ccc(OCc5cccc(F)c5)c(Cl)c4)c3c2)o1 [Lapatinib] (partner 2 µM)
How it was run: (§1)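 A single step with final 0.05% Triton X-100, 1% formaldehyde and 1 ug/ml Hoechst fixed the cells and stained nuclei 5 days after treatment. Lung cancer cell lines in 1536-well plates had been treated by pin tool the day after seeding with one drug alone or a fixed anchor-drug dose plus five library-drug doses (not always all listed) in √10 steps, and nuclei were counted on 4× images. Relative viability is the ratio of nuclei in treated wells to nuclei in vehicle wells, taken as the median of duplicate plates.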

Serdemetan + Decitabine = compound: c1ccc2c(CCNc3ccc(Nc4ccncc4)cc3)c[nH]c2c1 [Serdemetan] + Nc1ncn([C@H]2C[C@H](O)[C@@H](CO)O2)c(=O)n1 [Decitabine] (partner 2 µM)
How it was run: as §1

Selisistat + Olaparib = compound: C1CC(C2=C(C1)C3=C(N2)C=CC(=C3)Cl)C(=O)N [Selisistat] + O=C(c1cc(Cc2n[nH]c(=O)c3ccccc23)ccc1F)N1CCN(C(=O)C2CC2)CC1 [Olaparib] (partner 8 µM)
How it was run: as §1

Serdemetan + Tozasertib = compound: c1ccc2c(CCNc3ccc(Nc4ccncc4)cc3)c[nH]c2c1 [Serdemetan] + Cc1cc(Nc2cc(N3CCN(C)CC3)nc(Sc3ccc(NC(=O)C4CC4)cc3)n2)n[nH]1 [Tozasertib] (partner 0.1 µM)
How it was run: as §1

## NCI-H3122
Selisistat + Lapatinib; first compound 0.4 µM
  relative viability: 1.01
Selisistat + Lapatinib; first compound 1.265 µM
  relative viability: 1.01
Selisistat + Lapatinib; first compound 4 µM
  relative viability: 0.772
Selisistat + Lapatinib; first compound 12.65 µM
  relative viability: 1.05
Selisistat + Lapatinib; first compound 40 µM
  relative viability: 1.1
Serdemetan + Decitabine; first compound 0.04 µM
  relative viability: 0.451
Serdemetan + Decitabine; first compound 0.1265 µM
  relative viability: 0.444
Serdemetan + Decitabine; first compound 0.4 µM
  relative viability: 0.469
Serdemetan + Decitabine; first compound 1.265 µM
  relative viability: 0.322
Serdemetan + Decitabine; first compound 4 µM
  relative viability: 0.368
Selisistat + Olaparib; first compound 0.4 µM
  relative viability: 0.661
Selisistat + Olaparib; first compound 1.265 µM
  relative viability: 0.661
Selisistat + Olaparib; first compound 12.65 µM
  relative viability: 0.556
Selisistat + Olaparib; first compound 40 µM
  relative viability: 0.649
Serdemetan + Tozasertib; first compound 0.04 µM
  relative viability: 0.369
Serdemetan + Tozasertib; first compound 0.1265 µM
  relative viability: 0.431
Serdemetan + Tozasertib; first compound 0.4 µM
  relative viability: 0.382
Serdemetan + Tozasertib; first compound 1.265 µM
  relative viability: 0.406
Serdemetan + Tozasertib; first compound 4 µM
  relative viability: 0.337

## PC-3 [JPC-3]
Selisistat + Lapatinib; first compound 0.4 µM
  relative viability: 0.439
Selisistat + Lapatinib; first compound 1.265 µM
  relative viability: 0.457
Selisistat + Lapatinib; first compound 4 µM
  relative viability: 0.398
Selisistat + Lapatinib; first compound 12.65 µM
  relative viability: 0.487
Selisistat + Lapatinib; first compound 40 µM
  relative viability: 0.417
Serdemetan + Decitabine; first compound 0.04 µM
  relative viability: 0.901
Serdemetan + Decitabine; first compound 0.1265 µM
  relative viability: 0.844
Serdemetan + Decitabine; first compound 0.4 µM
  relative viability: 0.854
Serdemetan + Decitabine; first compound 1.265 µM
  relative viability: 0.847
Serdemetan + Decitabine; first compound 4 µM
  relative viability: 0.742
Selisistat + Olaparib; first compound 0.4 µM
  relative viability: 1.13
Selisistat + Olaparib; first compound 1.265 µM
  relative viability: 1.1
Selisistat + Olaparib; first compound 12.65 µM
  relative viability: 1.02
Selisistat + Olaparib; first compound 40 µM
  relative viability: 1.07
Serdemetan + Tozasertib; first compound 0.04 µM
  relative viability: 0.841
Serdemetan + Tozasertib; first compound 0.1265 µM
  relative viability: 0.795
Serdemetan + Tozasertib; first compound 0.4 µM
  relative viability: 0.784
Serdemetan + Tozasertib; first compound 1.265 µM
  relative viability: 0.929
Serdemetan + Tozasertib; first compound 4 µM
  relative viability: 0.87

## PC-14
Selisistat + Lapatinib; first compound 0.4 µM
  relative viability: 0.371
Selisistat + Lapatinib; first compound 1.265 µM
  relative viability: 0.356
Selisistat + Lapatinib; first compound 4 µM
  relative viability: 0.218
Selisistat + Lapatinib; first compound 12.65 µM
  relative viability: 0.294
Selisistat + Lapatinib; first compound 40 µM
  relative viability: 0.342
Serdemetan + Decitabine; first compound 0.04 µM
  relative viability: 0.186
Serdemetan + Decitabine; first compound 0.1265 µM
  relative viability: 0.202
Serdemetan + Decitabine; first compound 1.265 µM
  relative viability: 0.125
Serdemetan + Decitabine; first compound 4 µM
  relative viability: 0.138
Selisistat + Olaparib; first compound 0.4 µM
  relative viability: 0.252
Selisistat + Olaparib; first compound 1.265 µM
  relative viability: 0.201
Selisistat + Olaparib; first compound 4 µM
  relative viability: 0.186
Selisistat + Olaparib; first compound 12.65 µM
  relative viability: 0.204
Selisistat + Olaparib; first compound 40 µM
  relative viability: 0.29
Serdemetan + Tozasertib; first compound 0.04 µM
  relative viability: 0.522
Serdemetan + Tozasertib; first compound 0.1265 µM
  relative viability: 0.595
Serdemetan + Tozasertib; first compound 1.265 µM
  relative viability: 0.548
Serdemetan + Tozasertib; first compound 4 µM
  relative viability: 0.428

## RERF-LC-KJ
Selisistat + Lapatinib; first compound 0.4 µM
  relative viability: 0.857
Selisistat + Lapatinib; first compound 1.265 µM
  relative viability: 0.854
Selisistat + Lapatinib; first compound 4 µM
  relative viability: 0.793
Selisistat + Lapatinib; first compound 12.65 µM
  relative viability: 0.811
Selisistat + Lapatinib; first compound 40 µM
  relative viability: 0.831
Serdemetan + Decitabine; first compound 0.04 µM
  relative viability: 0.785
Serdemetan + Decitabine; first compound 0.1265 µM
  relative viability: 0.636
Serdemetan + Decitabine; first compound 0.4 µM
  relative viability: 0.722
Serdemetan + Decitabine; first compound 1.265 µM
  relative viability: 0.489
Serdemetan + Decitabine; first compound 4 µM
  relative viability: 0.605
Selisistat + Olaparib; first compound 0.4 µM
  relative viability: 0.962
Selisistat + Olaparib; first compound 1.265 µM
  relative viability: 0.916
Selisistat + Olaparib; first compound 4 µM
  relative viability: 0.844
Selisistat + Olaparib; first compound 12.65 µM
  relative viability: 0.828
Selisistat + Olaparib; first compound 40 µM
  relative viability: 0.839
Serdemetan + Tozasertib; first compound 0.04 µM
  relative viability: 0.49
Serdemetan + Tozasertib; first compound 0.1265 µM
  relative viability: 0.441
Serdemetan + Tozasertib; first compound 0.4 µM
  relative viability: 0.479
Serdemetan + Tozasertib; first compound 1.265 µM
  relative viability: 0.455
Serdemetan + Tozasertib; first compound 4 µM
  relative viability: 0.469

## SK-LU-1
Selisistat + Lapatinib; first compound 0.4 µM
  relative viability: 0.924
Selisistat + Lapatinib; first compound 1.265 µM
  relative viability: 0.825
Selisistat + Lapatinib; first compound 4 µM
  relative viability: 0.936
Selisistat + Lapatinib; first compound 12.65 µM
  relative viability: 0.958
Selisistat + Lapatinib; first compound 40 µM
  relative viability: 0.867
Serdemetan + Decitabine; first compound 0.04 µM
  relative viability: 0.581
Serdemetan + Decitabine; first compound 0.1265 µM
  relative viability: 0.58
Serdemetan + Decitabine; first compound 0.4 µM
  relative viability: 0.691
Serdemetan + Decitabine; first compound 1.265 µM
  relative viability: 0.393
Serdemetan + Decitabine; first compound 4 µM
  relative viability: 0.593
Selisistat + Olaparib; first compound 0.4 µM
  relative viability: 0.567
Selisistat + Olaparib; first compound 1.265 µM
  relative viability: 0.408
Selisistat + Olaparib; first compound 4 µM
  relative viability: 0.404
Selisistat + Olaparib; first compound 12.65 µM
  relative viability: 0.495
Selisistat + Olaparib; first compound 40 µM
  relative viability: 0.529
Serdemetan + Tozasertib; first compound 0.04 µM
  relative viability: 0.378
Serdemetan + Tozasertib; first compound 0.1265 µM
  relative viability: 0.298
Serdemetan + Tozasertib; first compound 0.4 µM
  relative viability: 0.337
Serdemetan + Tozasertib; first compound 4 µM
  relative viability: 0.294

## SK-MES-1
Selisistat + Lapatinib; first compound 0.4 µM
  relative viability: 0.479
Selisistat + Lapatinib; first compound 1.265 µM
  relative viability: 0.525
Selisistat + Lapatinib; first compound 4 µM
  relative viability: 0.411
Selisistat + Lapatinib; first compound 12.65 µM
  relative viability: 0.504
Selisistat + Lapatinib; first compound 40 µM
  relative viability: 0.426
Serdemetan + Decitabine; first compound 0.04 µM
  relative viability: 0.327
Serdemetan + Decitabine; first compound 0.1265 µM
  relative viability: 0.368
Serdemetan + Decitabine; first compound 0.4 µM
  relative viability: 0.397
Serdemetan + Decitabine; first compound 1.265 µM
  relative viability: 0.33
Serdemetan + Decitabine; first compound 4 µM
  relative viability: 0.281
Selisistat + Olaparib; first compound 0.4 µM
  relative viability: 0.769
Selisistat + Olaparib; first compound 1.265 µM
  relative viability: 0.717
Selisistat + Olaparib; first compound 4 µM
  relative viability: 0.823
Selisistat + Olaparib; first compound 12.65 µM
  relative viability: 0.736
Selisistat + Olaparib; first compound 40 µM
  relative viability: 0.809
Serdemetan + Tozasertib; first compound 0.04 µM
  relative viability: 0.871
Serdemetan + Tozasertib; first compound 0.1265 µM
  relative viability: 0.859
Serdemetan + Tozasertib; first compound 0.4 µM
  relative viability: 0.851
Serdemetan + Tozasertib; first compound 1.265 µM
  relative viability: 0.747
Serdemetan + Tozasertib; first compound 4 µM
  relative viability: 0.865

## SW 1573
Selisistat + Lapatinib; first compound 0.4 µM
  relative viability: 1.14
Selisistat + Lapatinib; first compound 1.265 µM
  relative viability: 1.02
Selisistat + Lapatinib; first compound 4 µM
  relative viability: 1.02
Selisistat + Lapatinib; first compound 12.65 µM
  relative viability: 1.04
Selisistat + Lapatinib; first compound 40 µM
  relative viability: 1.12
Serdemetan + Decitabine; first compound 0.04 µM
  relative viability: 0.484
Serdemetan + Decitabine; first compound 0.1265 µM
  relative viability: 0.522
Serdemetan + Decitabine; first compound 0.4 µM
  relative viability: 0.427
Serdemetan + Decitabine; first compound 1.265 µM
  relative viability: 0.249
Serdemetan + Decitabine; first compound 4 µM
  relative viability: 0.219
Selisistat + Olaparib; first compound 0.4 µM
  relative viability: 0.4
Selisistat + Olaparib; first compound 1.265 µM
  relative viability: 0.462
Selisistat + Olaparib; first compound 4 µM
  relative viability: 0.505
Selisistat + Olaparib; first compound 12.65 µM
  relative viability: 0.639
Selisistat + Olaparib; first compound 40 µM
  relative viability: 0.505
Serdemetan + Tozasertib; first compound 0.04 µM
  relative viability: 0.168
Serdemetan + Tozasertib; first compound 0.1265 µM
  relative viability: 0.15
Serdemetan + Tozasertib; first compound 0.4 µM
  relative viability: 0.218
Serdemetan + Tozasertib; first compound 1.265 µM
  relative viability: 0.248
Serdemetan + Tozasertib; first compound 4 µM
  relative viability: 0.18
